Data from ChEMBL document CHEMBL4651402, “Screening of ~5500 FDA-approved drugs and clinical candidates for anti-SARS-CoV-2 activity” (2021).

System: SARS-CoV-2
Assay: microbe, parasite or virus in culture
Details: Severe acute respiratory syndrome coronavirus 2, Vero C1008, 48 h

Structure (SMILES)	IC50	IC50 (read-out: pIC50 (converted))
CO[C@@H]1[C@@H](OC(N)=O)[C@@H](O)[C@H](Oc2ccc3c(O)c(NC(=O)c4ccc(O)c(CC=C(C)C)c4)c(=O)oc3c2C)OC1(C)C [NOVOBIOCIN]	> 20 µM	> 20 µM
Cc1nnc(C(CCN2CC3CCC2CC3)(c2ccccc2)c2ccccc2)o1 [NUFENOXOLE]	> 20 µM	> 20 µM
CC(CCc1ccccc1)NC(C)C(O)c1ccc(O)cc1 (configuration not stated) [NYLIDRIN]	> 20 µM	> 20 µM
CN(C)C[C@H]1CCCC[C@]1(O)c1cccc(O)c1 [O-DESMETHYL TRAMADOL]	> 100 µM	> 100 µM
Cc1nc2c(C)cccn2c(=O)c1CCN1CCC(c2noc3cc(F)ccc23)CC1 [OCAPERIDONE]	> 20 µM	> 20 µM
CCCCCCCC(=O)O [OCTANOIC ACID]	> 20 µM	> 20 µM
CCOc1cc(-c2nccc3cc(OC)c(OC)cc23)cc(OCC)c1OCC [OCTAVERINE]	> 20 µM	> 20 µM
CCCCCCCCN=c1ccn(CCCCCCCCCCn2ccc(=NCCCCCCCC)cc2)cc1 [OCTENIDINE]	> 20 µM	> 20 µM
NCC(O)c1ccc(O)cc1 (configuration not stated) [OCTOPAMINE]	> 20 µM	> 20 µM
CC1COc2c(N3CCN(C)CC3)c(F)cc3c(=O)c(C(=O)O)cn1c23 (configuration not stated) [OFLOXACIN]	> 20 µM	> 20 µM
Cc1cc2c(s1)Nc1ccccc1N=C2N1CCN(C)CC1 [OLANZAPINE]	> 20 µM	> 20 µM
O=C(c1cc(Cc2n[nH]c(=O)c3ccccc23)ccc1F)N1CCN(C(=O)C2CC2)CC1 [OLAPARIB]	> 20 µM	> 20 µM
NCCCC[C@H](NC(=O)[C@@H](Cc1cc(Br)c(O)c(Br)c1)NC(=O)N1CCC(N2Cc3ccccc3NC2=O)CC1)C(=O)N1CCN(c2ccncc2)CC1 [OLCEGEPANT]	> 20 µM	> 20 µM
CO[C@H]1C[C@H](O[C@H]2[C@H](C)[C@@H](O[C@@H]3O[C@H](C)C[C@H](N(C)C)[C@H]3O)[C@@H](C)C[C@@]3(CO3)C(=O)[C@H](C)[C@@H](O)[C@@H](C)[C@@H](C)OC(=O)[C@@H]2C)O[C@@H](C)[C@@H]1O [OLEANDOMYCIN]	> 20 µM	> 20 µM
CC1(C)CC[C@]2(C(=O)O)CC[C@]3(C)C(=CC[C@@H]4[C@@]5(C)CC[C@H](O)C(C)(C)[C@@H]5CC[C@]43C)[C@@H]2C1 [OLEANOLIC_ACID]	> 20 µM	> 20 µM
CCCCCCCC/C=C\CCCCCCCC(=O)O [OLEIC ACID]	> 20 µM	> 20 µM
C/C=C1/[C@H](O[C@@H]2O[C@H](CO)[C@@H](O)[C@H](O)[C@H]2O)OC=C(C(=O)OC)[C@H]1CC(=O)OCCc1ccc(O)c(O)c1 [OLEUROPEIN]	> 20 µM	> 20 µM
OC[C@H]1O[C@@H](S[C@@H]2O[C@H](CO)[C@H](O)[C@H](n3cc(-c4cccc(F)c4)nn3)[C@H]2O)[C@H](O)[C@@H](n2cc(-c3cccc(F)c3)nn2)[C@H]1O [OLITIGALTIN]	> 20 µM	> 20 µM
CCCc1nc(C(C)(C)O)c(C(=O)O)n1Cc1ccc(-c2ccccc2-c2nnn[nH]2)cc1 [OLMESARTAN]	> 20 µM	> 20 µM
CN(C)CC/C=C1/c2ccccc2COc2ccc(CC(=O)O)cc21 [OLOPATADINE]	> 20 µM	> 20 µM
CC(C)(C)[C@@H](CO)NC(=O)c1nn(-c2c[n+]([O-])ccn2)c2c1C[C@@H]1C[C@H]21 [OLORINAB]	> 20 µM	> 20 µM
O=C(O)c1cc(/N=N/c2ccc(O)c(C(=O)O)c2)ccc1O [OLSALAZINE]	> 20 µM	> 20 µM

Structure (SMILES)	IC50	IC50 (read-out: pIC50 (converted))
Cc1c(-c2cnccn2)ssc1=S [OLTIPRAZ]	> 20 µM	> 20 µM
COC(=O)C[C@](O)(CCCC(C)(C)O)C(=O)O[C@@H]1C(OC)=C[C@]23CCCN2CCc2cc4c(cc2[C@H]13)OCO4 [OMACETAXINE MEPESUCCINATE]	> 20 µM	> 20 µM
O=C(N[C@H]1CCS[C@H]2CCC[C@@H](C(=O)O)N2C1=O)[C@@H](S)Cc1ccccc1 [OMAPATRILAT]	> 20 µM	> 20 µM
COC(=O)N1CCN(Cc2cccc(NC(=O)Nc3ccc(C)nc3)c2F)CC1 [OMECAMTIV MECARBIL]	> 20 µM	> 20 µM
COc1ccc2[nH]c([S+]([O-])Cc3ncc(C)c(OC)c3C)nc2c1 (configuration not stated) [OMEPRAZOLE]	> 20 µM	> 20 µM
CC(C)c1cc(C(=O)N2Cc3ccc(CN4CCN(C)CC4)cc3C2)c(O)cc1O [ONALESPIB]	> 20 µM	> 20 µM
Cc1nccn1CC1CCc2c(c3ccccc3n2C)C1=O (configuration not stated) [ONDANSETRON]	> 20 µM	> 20 µM
CN1CCN(c2ccc(OC(F)(F)F)c(Nc3ncc4c(n3)-c3c(c(C(N)=O)nn3CCO)CC4)c2)CC1 [ONVANSERTIB]	> 20 µM	> 20 µM
OCCN1CCN(CCCN2c3ccccc3C=Cc3ccccc32)CC1 [OPIPRAMOL]	> 20 µM	> 20 µM
Clc1ccc(C(Cn2ccnc2)OCc2c(Cl)cccc2Cl)cc1 (configuration not stated) [ORCONAZOLE]	> 20 µM	> 20 µM
COc1ccc2c(c1)CC[C@H](CN(C)CC(=O)O)[C@@H]2c1ccccc1 [ORG-25935]	> 20 µM	> 20 µM
C=C1C(=O)[C@]23[C@H](O)[C@H]1CC[C@H]2[C@@]12CO[C@]3(O)[C@@H](O)[C@@H]1C(C)(C)CC[C@@H]2O [ORIDONIN]	> 20 µM	> 20 µM
CN[C@H](CC(C)C)C(=O)N[C@H]1C(=O)N[C@@H](CC(N)=O)C(=O)N[C@H]2C(=O)N[C@H]3C(=O)N[C@H](C(=O)N[C@H](C(=O)O)c4cc(O)cc(O)c4-c4cc3ccc4O)[C@H](O[C@H]3C[C@](C)(N)[C@@H](O)[C@H](C)O3)c3ccc(c(Cl)c3)Oc3cc2cc(c3O[C@@H]2O[C@H](CO)[C@@H](O)[C@H](O)[C@H]2O[C@H]2C[C@](C)(NCc3ccc(-c4ccc(Cl)cc4)cc3)[C@@H](O)[C@H](C)O2)Oc2ccc(cc2Cl)[C@H]1O [ORITAVANCIN]	> 20 µM	> 20 µM
CCCCCCCCCCC[C@@H](C[C@@H]1OC(=O)[C@H]1CCCCCC)OC(=O)[C@H](CC(C)C)NC=O [ORLISTAT]	> 20 µM	> 20 µM
Cc1ncc([N+](=O)[O-])n1CC(O)CCl (configuration not stated) [ORNIDAZOLE]	> 20 µM	> 20 µM
NCCCC(N)C(=O)O (configuration not stated) [ORNITHINE aKETOGLUTARATE]	> 10 µM	> 10 µM
O=C(O)c1cc(=O)[nH]c(=O)[nH]1 [OROTIC ACID]	> 20 µM	> 20 µM
Cc1ccccc1C(OCCN(C)C)c1ccccc1 (configuration not stated) [ORPHENADRINE]	> 20 µM	> 20 µM
CCOC(=O)c1c(C)cc(O)cc1O [ORSELLINIC ACID, ETHYL ESTER]	> 20 µM	> 20 µM
CC(C)=CCc1c2c(c3occ(-c4ccc(O)cc4)c(=O)c3c1O)C=CC(C)(C)O2 [OSAJIN]	> 20 µM	> 20 µM
O=C(Nc1ccc(O)cc1)c1ccccc1O [OSALMID]	> 20 µM	> 20 µM
CC(=O)N(C)C1(c2ccccc2)CCN(CCC[C@]2(c3ccc(Cl)c(Cl)c3)CCCN(C(=O)c3ccccc3)C2)CC1 [OSANETANT]	> 20 µM	> 20 µM

Structure (SMILES)	IC50	IC50 (read-out: pIC50 (converted))
CCOC(=O)C1=C[C@@H](OC(CC)CC)[C@H](NC(C)=O)[C@@H](N)C1 [OSELTAMIVIR]	> 20 µM	> 20 µM
COc1cccc2cc(-c3nc([C@H]4CC[C@H](C(=O)O)CC4)n4ncnc(N)c34)[nH]c12 [OSI-027]	> 20 µM	> 20 µM
O=C(Nc1ccc(OC(F)(F)F)cc1)c1sccc1NCc1ccnc2ccccc12 [OSI-930]	> 20 µM	> 20 µM
CCN(CC)CC1CCCCN1CC(=O)N1c2ccccc2C(=O)Nc2cccnc21 (configuration not stated) [OTENZEPAD]	> 20 µM	> 20 µM
C[C@@H]1O[C@@H](O[C@H]2C[C@@H](O)[C@]3(CO)[C@H]4[C@H](O)C[C@]5(C)[C@@H](C6=CC(=O)OC6)CC[C@]5(O)[C@@H]4CC[C@]3(O)C2)[C@H](O)[C@H](O)[C@H]1O [OUABAIN]	> 20 µM	> 20 µM
CC(=O)N1C[C@H](O)C[C@H]1C(=O)O [OXACEPROL]	> 20 µM	> 20 µM
O=C(O)C(=O)O [OXALIC ACID]	> 20 µM	> 20 µM
O=C(O)CC(=O)C(=O)O [OXALOACETATE]	> 20 µM	> 20 µM
COc1ccc2c(c1)c(CC(=O)NO)c(C)n2C(=O)c1ccc(Cl)cc1 [OXAMETACIN]	> 20 µM	> 20 µM
CC(C)NCC1CCc2cc(CO)c([N+](=O)[O-])cc2N1 (configuration not stated) [OXAMNIQUINE]	> 20 µM	> 20 µM
C[C@]12COC(=O)C[C@@H]1CC[C@@H]1[C@@H]2CC[C@@]2(C)[C@H]1CC[C@]2(C)O [OXANDROLONE]	> 20 µM	> 20 µM
O=C1Nc2ccc(Cl)cc2C(c2ccccc2)=NC1O (configuration not stated) [OXAZEPAM]	> 20 µM	> 20 µM
NC(=O)N1c2ccccc2CC(=O)c2ccccc21 [OXCARBAZEPINE]	> 20 µM	> 20 µM
CNCC(O)c1ccc(O)cc1 (configuration not stated) [OXEDRINE]	> 20 µM	> 20 µM
CCN(CC)CCOCCOC(=O)C(CC)(CC)c1ccccc1 [OXELADIN]	> 20 µM	> 20 µM
COC(=O)Nc1nc2cc([S+]([O-])c3ccccc3)ccc2[nH]1 (configuration not stated) [OXFENDAZOLE]	> 20 µM	> 20 µM
CCCOc1ccc2[nH]c(NC(=O)OC)nc2c1 [OXIBENDAZOLE]	> 20 µM	> 20 µM
Clc1ccc(CO/N=C(\Cn2ccnc2)c2ccc(Cl)cc2Cl)c(Cl)c1 [OXICONAZOLE]	> 20 µM	> 20 µM
O=c1[nH]c2ccccc2n1C1CCN(CCOc2ccccc2)CC1 [OXIPEROMIDE]	> 20 µM	> 20 µM
Cc1[nH]cnc1CSCCNc1nc(=O)c(Cc2ccc3c(c2)OCO3)c[nH]1 [OXMETIDINE]	> 20 µM	> 20 µM
CCN(CC)CCc1nc(-c2ccccc2)no1 [OXOLAMINE]	> 20 µM	> 20 µM
CCn1cc(C(=O)O)c(=O)c2cc3c(cc21)OCO3 [OXOLINIC ACID]	> 20 µM	> 20 µM
